# Test results: ChEMBL document CHEMBL6083290, “Proline Analogues in Drug Design: Current Trends and Future Prospects” (J Med Chem, 2024)
# Starred links: 1 amine or outer side, 2 acyl side, 3 side chain; linkers in the order of their positions; H or OH if unused. Non-standard residues stand in square brackets, D forms with d. Residues, ends and D or L forms follow the SMILES beside them. ξ: configuration not given here. *: point of attachment. X3 = CC(C)C[C@H](N[*:1])[C@H](O)C[C@H](C(=O)[*:2])C(C)C; X2 = O=C(C1[C@@H](F)[C@@H](O)CN1[*:1])[*:2]; X1 = O=C(C1[C@H](F)[C@@H](O)CN1[*:1])[*:2]; ξPro(4R-OH) = O=C(O)C1C[C@@H](O)CN1; NHCH2(2-pyridyl) = c1ccc(CN*)nc1; αMeP = C[C@@]1(C(=O)O)CCCN1; Boc = CC(C)(C)OC(=O)*
# Key:
# [1] = biological target: T1, Replicase polyprotein 1ab (Severe acute respiratory syndrome coronavirus 2, UniProt P0DTD1)
# Description: Inhibition of SARS-CoV-2 main protease
# [2] = Lipophilicity, logP of compound; conditions: octanol/water
# [3] = biological target: T1, Replicase polyprotein 1ab; remark: listed apart in the source
# Description: Inhibition of SARS-CoV-2 main protease extracted from Escherichia coli BL21 (DE3) cells
# SARS-CoV-2 = assay: microbe, parasite or virus in culture; conditions: Severe acute respiratory syndrome coronavirus 2, 2019-nCoV Muc-IMB-1, Vero C1008, 48 h
# Description: Antiviral activity against SARS-CoV-2 2019-nCoV Muc-IMB-1 infected in Vero E6 cells assessed as reduction in viral replication measured after 48 hrs by qRT-PCR analysis
# [4] = biological target: Endothelial PAS domain-containing protein 1 (Homo sapiens, UniProt Q99814); assay: Binding affinity to HIF-2alpha (unknown origin) assessed as dissociation constant
# Endothelial PAS domain-containing protein 1, sequence (Q99814 whole entry, the tested form may be a part): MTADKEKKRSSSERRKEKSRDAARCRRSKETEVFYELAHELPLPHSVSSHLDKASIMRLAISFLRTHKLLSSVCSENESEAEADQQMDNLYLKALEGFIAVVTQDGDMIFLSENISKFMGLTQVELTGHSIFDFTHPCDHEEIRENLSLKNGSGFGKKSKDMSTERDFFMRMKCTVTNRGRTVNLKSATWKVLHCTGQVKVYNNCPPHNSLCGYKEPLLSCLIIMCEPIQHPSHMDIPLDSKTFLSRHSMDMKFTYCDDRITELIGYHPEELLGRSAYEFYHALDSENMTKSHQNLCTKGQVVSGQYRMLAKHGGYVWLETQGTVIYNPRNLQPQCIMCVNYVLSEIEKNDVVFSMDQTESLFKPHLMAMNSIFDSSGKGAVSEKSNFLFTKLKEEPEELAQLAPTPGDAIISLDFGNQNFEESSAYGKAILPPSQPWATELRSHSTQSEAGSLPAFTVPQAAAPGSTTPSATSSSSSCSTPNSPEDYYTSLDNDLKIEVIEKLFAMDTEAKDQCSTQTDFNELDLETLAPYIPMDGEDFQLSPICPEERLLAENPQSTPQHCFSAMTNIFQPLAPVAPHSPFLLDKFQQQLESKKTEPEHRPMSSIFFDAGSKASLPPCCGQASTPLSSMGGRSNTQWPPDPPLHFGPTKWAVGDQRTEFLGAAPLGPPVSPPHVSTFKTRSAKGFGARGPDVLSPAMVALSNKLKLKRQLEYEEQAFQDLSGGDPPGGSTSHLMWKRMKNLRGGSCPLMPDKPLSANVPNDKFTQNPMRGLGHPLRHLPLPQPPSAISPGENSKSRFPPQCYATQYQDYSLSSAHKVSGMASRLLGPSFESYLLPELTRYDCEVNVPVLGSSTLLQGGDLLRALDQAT
# [5] = Inhibition of Glutamate receptor (unknown origin)
# Renin = biological target: T2, Renin (Homo sapiens, UniProt P00797); assay: Inhibition of renin (unknown origin) using Arg-Glu(EDANS)-lle-His-Pro-Phe-His-Leu-Val-lle-His-Thr-Lys(dabcyl)-Arg as substrate incubated for 10 mins by fluorescence based assay
# T2 sequence (P00797 whole entry): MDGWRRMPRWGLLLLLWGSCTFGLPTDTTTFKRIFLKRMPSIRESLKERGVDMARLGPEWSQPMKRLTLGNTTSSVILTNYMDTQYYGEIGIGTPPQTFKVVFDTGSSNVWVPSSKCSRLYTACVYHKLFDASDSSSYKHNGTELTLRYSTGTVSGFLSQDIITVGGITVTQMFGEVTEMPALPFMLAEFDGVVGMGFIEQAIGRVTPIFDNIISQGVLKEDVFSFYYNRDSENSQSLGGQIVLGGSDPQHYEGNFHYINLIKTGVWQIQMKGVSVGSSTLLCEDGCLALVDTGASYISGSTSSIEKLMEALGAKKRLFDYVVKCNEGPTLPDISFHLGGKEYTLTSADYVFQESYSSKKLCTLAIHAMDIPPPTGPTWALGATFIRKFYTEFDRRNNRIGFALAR
# MCF7 = assay: Antiproliferative activity against human MCF7 cells assessed as reduction in cell viability incubated for 48 hrs by MTT assay; conditions: MCF7, 48 h
# L-363 = assay: Antiproliferative activity against human L-363 cells assessed as reduction in cell growth incubated for 72 hrs by MTT assay; conditions: L-363, 72 h
# [6] = biological target: Phosphatidylinositol 4,5-bisphosphate 3-kinase catalytic subunit alpha isoform (Homo sapiens, UniProt P42336); assay: Inhibition of PI3Kalpha (unknown origin) using PIP2 as substrate measured after 30 mins by TR-FRET assay
# Phosphatidylinositol 4,5-bisphosphate 3-kinase catalytic subunit alpha isoform, sequence (P42336 whole entry, canonical isoform): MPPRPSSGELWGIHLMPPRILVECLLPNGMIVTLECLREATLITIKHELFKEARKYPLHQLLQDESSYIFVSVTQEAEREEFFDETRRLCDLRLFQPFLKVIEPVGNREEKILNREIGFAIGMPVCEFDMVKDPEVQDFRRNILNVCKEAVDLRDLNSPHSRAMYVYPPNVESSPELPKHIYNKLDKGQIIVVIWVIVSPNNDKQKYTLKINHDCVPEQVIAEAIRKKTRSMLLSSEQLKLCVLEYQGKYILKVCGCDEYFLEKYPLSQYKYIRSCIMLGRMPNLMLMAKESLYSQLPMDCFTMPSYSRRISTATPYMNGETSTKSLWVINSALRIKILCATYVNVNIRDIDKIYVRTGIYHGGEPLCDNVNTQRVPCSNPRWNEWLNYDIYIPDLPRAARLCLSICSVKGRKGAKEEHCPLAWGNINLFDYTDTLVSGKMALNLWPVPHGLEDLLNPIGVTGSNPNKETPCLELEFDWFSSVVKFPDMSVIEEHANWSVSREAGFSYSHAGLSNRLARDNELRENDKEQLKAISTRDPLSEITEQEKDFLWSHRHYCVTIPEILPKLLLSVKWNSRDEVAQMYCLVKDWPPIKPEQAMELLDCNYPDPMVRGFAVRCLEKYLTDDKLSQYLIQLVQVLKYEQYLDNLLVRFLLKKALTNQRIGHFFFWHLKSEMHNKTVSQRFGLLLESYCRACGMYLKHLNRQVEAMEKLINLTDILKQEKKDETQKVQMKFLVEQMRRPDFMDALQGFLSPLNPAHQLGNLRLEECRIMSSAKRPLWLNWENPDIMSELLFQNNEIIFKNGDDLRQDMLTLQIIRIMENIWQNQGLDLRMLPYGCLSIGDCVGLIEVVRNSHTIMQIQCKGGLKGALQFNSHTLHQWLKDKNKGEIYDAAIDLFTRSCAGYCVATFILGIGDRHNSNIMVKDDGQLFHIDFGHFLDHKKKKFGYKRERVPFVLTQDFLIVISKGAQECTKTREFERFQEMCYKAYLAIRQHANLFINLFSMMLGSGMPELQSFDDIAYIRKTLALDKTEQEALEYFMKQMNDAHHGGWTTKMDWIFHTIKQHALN
# [7] = Metabolic stability in rat liver microsomes assessed as half life
# in vitro = conditions: rat, plasma
structure (smiles),measurement,setting,value
COc1ccc2nccc(C(=O)NCC(=O)N3CC(F)(F)C[C@H]3C#N)c2c1,IC50,[1],9 nM
Cc1c(COc2cc(OCc3cccc(C#N)c3)c(CN3C[C@H](O)C[C@@H]3C(=O)O)cc2Cl)cccc1-c1ccc2c(c1)OCCO2,IC50,[1],10.9 nM
COc1ccc(/C=C/C(=O)N2C[C@@H](NC(=O)c3cccnc3)C[C@H]2C(=O)NO)cc1OC,logP,[2],0.1
same,IC50,[3],9 nM
CC(C)(C)[C@H](NC(=O)C(F)(F)F)C(=O)N1C[C@H]2[C@@H]([C@H]1C(=O)N[C@H](C#N)C[C@@H]1CCNC1=O)C2(C)C,EC50,SARS-CoV-2,5600 nM
COc1cccc2[nH]c(C(=O)N[C@@H](CC(C)C)C(=O)N[C@H](C#N)C[C@@H]3CCNC3=O)cc12,EC50,SARS-CoV-2,1200 nM
COc1cccc2[nH]c(C(=O)N3C[C@H]4[C@@H]([C@H]3C(=O)N[C@@H](C[C@@H]3CCNC3=O)C(=O)c3nc5ccccc5s3)C4(C)C)cc12,EC50,SARS-CoV-2,1400 nM
CC(=O)N[C@@H](C(=O)N1C[C@H](O)[C@H](F)C1C(=O)NCc1ccc(-c2scnc2C)cc1)C(C)(C)C (some centres not stated),Kd,[4],0.24 nM
C[C@@H](C(=O)N[C@H](C(=O)N1C[C@H](OC(F)F)C[C@H]1C(=O)N[C@H](C#N)C[C@@H]1CCNC1=O)C(C)(C)C)N(C)C(=O)CCCCCNc1cccc2c1C(=O)N(C1CCC(=O)NC1=O)C2=O (some centres not stated),IC50,[3],182 nM
CC(=O)N[C@@H](C(=O)N1C[C@H](O)[C@@H](F)C1C(=O)NCc1ccc(-c2scnc2C)cc1)C(C)(C)C (some centres not stated),Kd,[4],3.1 nM
O=C(O)[C@@H]1C[C@H]2C[C@H](CN3CC(F)(F)C[C@H]3C(=O)O)CC[C@H]2CN1,IC50,[5],45 nM
CC[C@H](C)[C@H](NC(=O)[C@@H](C[C@@H](O)[C@H](CC(C)C)NC(=O)[C@H](Cc1c[nH]cn1)NC(=O)[C@H](Cc1ccccc1)NC(=O)[C@]1(C)CCCN1C(=O)OC(C)(C)C)C(C)C)C(=O)NCc1ccccn1 (Boc-[αMeP]FH[X3]I-{NHCH2(2-pyridyl)}),IC50,Renin,2 nM
CC[C@H](C)[C@H](NC(=O)[C@H](CCC(=O)O)NC(=O)[C@H](Cc1ccccc1)NC(=O)[C@H](CC(=O)O)NC(=O)[C@H](CC(=O)O)NC(=O)[C@H](CC(=O)O)NC(=O)[C@H](CCSC)NC(=O)[C@@H]1CCCN1C(=O)[C@H](Cc1ccc(O)cc1)NC(=O)C1[C@H](F)[C@@H](O)CN1C(=O)[C@H](C)NC(=O)[C@H](CC(C)C)NC(=O)[C@H](C)NC(=O)[C@H](CCC(=O)O)NC(=O)[C@@H](N)CC(=O)O)C(=O)N[C@@H](CCCNC(=N)N)C(=O)N[C@@H](CO)C(=O)N[C@@H](Cc1ccccc1)C(=O)O (some centres not stated) (H-DEALA[X1]YPMDDDFEIRSF-OH),Kd,[4],52 nM
CC[C@H](C)[C@H](NC(=O)[C@H](CCC(=O)O)NC(=O)[C@H](Cc1ccccc1)NC(=O)[C@H](CC(=O)O)NC(=O)[C@H](CC(=O)O)NC(=O)[C@H](CC(=O)O)NC(=O)[C@H](CCSC)NC(=O)[C@@H]1CCCN1C(=O)[C@H](Cc1ccc(O)cc1)NC(=O)C1[C@@H](F)[C@@H](O)CN1C(=O)[C@H](C)NC(=O)[C@H](CC(C)C)NC(=O)[C@H](C)NC(=O)[C@H](CCC(=O)O)NC(=O)[C@@H](N)CC(=O)O)C(=O)N[C@@H](CCCNC(=N)N)C(=O)N[C@@H](CO)C(=O)N[C@@H](Cc1ccccc1)C(=O)O (some centres not stated) (H-DEALA[X2]YPMDDDFEIRSF-OH),Kd,[4],12 nM
CC[C@H](C)[C@H](NC(=O)[C@H](CCC(=O)O)NC(=O)[C@H](Cc1ccccc1)NC(=O)[C@H](CC(=O)O)NC(=O)[C@H](CC(=O)O)NC(=O)[C@H](CC(=O)O)NC(=O)[C@H](CCSC)NC(=O)[C@@H]1CCCN1C(=O)[C@H](Cc1ccc(O)cc1)NC(=O)C1C[C@@H](O)CN1C(=O)[C@H](C)NC(=O)[C@H](CC(C)C)NC(=O)[C@H](C)NC(=O)[C@H](CCC(=O)O)NC(=O)[C@@H](N)CC(=O)O)C(=O)N[C@@H](CCCNC(=N)N)C(=O)N[C@@H](CO)C(=O)N[C@@H](Cc1ccccc1)C(=O)O (stereo partly drawn) (H-DEALA[ξPro(4R-OH)]YPMDDDFEIRSF-OH),Kd,[4],11 nM
Cc1nc(NC(=O)N2CCC[C@H]2C(N)=O)sc1-c1ccnc(C(C)(C)C(F)(F)F)c1 [ALPELISIB],IC50,MCF7,1200 nM
same,IC50,L-363,170 nM
O=C(/C=C/c1cccc(S(=O)(=O)Nc2ccccc2)c1)NO [BELINOSTAT],IC50,[6],2.9 nM
same,IC50,MCF7,1200 nM
same,IC50,L-363,170 nM
CS(=O)(=O)c1cncc(C(=O)N2[C@@H](C(=O)N[C@@H](c3cc(F)c(C(F)(F)F)cc3F)C3CC3)C[C@H]3C[C@H]32)c1 [NELUTROCTIV],half-life,[7],30 min
C[C@@]1(C(=O)N[C@@H](CCC(=O)O)C(=O)O)CCCN1C(=O)CN [TROFINETIDE] (H-Gly-[αMeP]-Glu-OH),half-life,in vitro,49 min
